Test system: T1, ACT3 (Cla022713)
T1 construct: plant material in Methods: Number One
Assay type: biochemical, Citrullus lanatus
Details: 10 mM acetyl-CoA, 50 mM sodium phosphate pH 7.4, 30 °C; C16-O-acetylation
Text: acetylation assay, product by HPLC/LC-MS, Michaelis-Menten fit on ACT3 (Cla022713)

SMILES: CC(=O)OC(C)(C)/C=C/C(=O)[C@](C)(O)[C@H]1[C@H](O)C[C@@]2(C)[C@@H]3CC=C4[C@@H](C[C@H](O)C(=O)C4(C)C)[C@]3(C)C(=O)C[C@]12C [CuB]
- Km: 11.8 ± 1.74 µM

SMILES: CC(C)(O)/C=C/C(=O)[C@](C)(O)[C@H]1[C@H](O)C[C@@]2(C)[C@@H]3CC=C4[C@@H](C[C@H](O)C(=O)C4(C)C)[C@]3(C)C(=O)C[C@]12C [CuD]
- Km: 10.4 ± 1.19 µM

SMILES: CC(=O)OC(C)(C)/C=C/C(=O)[C@](C)(O)[C@H]1[C@H](O)C[C@@]2(C)[C@@H]3CC=C4[C@@H](C=C(O[C@@H]5O[C@H](CO)[C@@H](O)[C@H](O)[C@H]5O)C(=O)C4(C)C)[C@]3(C)C(=O)C[C@]12C [CuE-Glu]
- Km: 11.6 ± 1.62 µM

SMILES: CC(=O)OC(C)(C)/C=C/C(=O)[C@](C)(O)[C@H]1[C@H](O)C[C@@]2(C)[C@@H]3CC=C4[C@@H](C=C(O)C(=O)C4(C)C)[C@]3(C)C(=O)C[C@]12C [CuE]
- Km: 7.63 ± 4.83 µM

SMILES: CC(C)(O)/C=C/C(=O)[C@](C)(O)[C@H]1[C@H](O)C[C@@]2(C)[C@@H]3CC=C4[C@@H](C=C(O)C(=O)C4(C)C)[C@]3(C)C(=O)C[C@]12C [CuI]
- Km: 8.62 ± 0.95 µM
